Earlier results on one substance are cited in paper PMC2895553 (Journal of the American Chemical Society, 2010).

In the data set the test system is αvβ3 integrin.

Regarding “cyclo(-Arg-Gly-Asp-DPhe-(Me)Val-] [Cilengitide]”, the “activity as inhibitor for the αvβ3 integrin” value is given as 0.5 nM.
